Measured values published in patent publication US7192924B2, “Corticotropin releasing factor 2 receptor agonists” (priority 2002, dated 2007).
Peptide text beside a SMILES is read from it.

What was measured:
CRF2R = target: T1, CRF2R (Homo sapiens, UniProt Q13324); test: CRF2R agonist activity (EC50, Emax), called comparative CRF binding; format: cell-based; conditions: read-out: CRF2R EC50
T1 sequence (Q13324 1-411): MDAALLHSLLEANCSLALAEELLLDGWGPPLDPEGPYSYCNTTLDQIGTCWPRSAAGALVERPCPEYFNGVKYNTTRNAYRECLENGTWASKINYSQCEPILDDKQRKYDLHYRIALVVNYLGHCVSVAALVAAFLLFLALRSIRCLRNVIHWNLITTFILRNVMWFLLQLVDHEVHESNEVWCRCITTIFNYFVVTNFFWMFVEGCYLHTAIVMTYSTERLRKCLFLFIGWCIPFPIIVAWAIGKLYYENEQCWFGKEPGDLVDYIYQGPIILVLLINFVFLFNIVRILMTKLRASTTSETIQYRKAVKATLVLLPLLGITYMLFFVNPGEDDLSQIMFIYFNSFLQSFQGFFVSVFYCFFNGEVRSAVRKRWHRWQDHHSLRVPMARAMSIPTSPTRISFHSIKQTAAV
Method in brief: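 Receptor activation was followed through cAMP, measured in lysates or by a CRE-linked reporter, after peptide or vehicle exposure. Cells carried a single CRF receptor subtype, CRF1R or CRF2R; where both were present, background from the non-target receptor was subtracted.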

CRF1R = target: T2, CRF1R (Homo sapiens, UniProt P34998); test: CRF1R agonist activity (EC50, Emax), called comparative CRF binding; format: cell-based; conditions: read-out: CRF1R EC50
T2 sequence (P34998 24-415): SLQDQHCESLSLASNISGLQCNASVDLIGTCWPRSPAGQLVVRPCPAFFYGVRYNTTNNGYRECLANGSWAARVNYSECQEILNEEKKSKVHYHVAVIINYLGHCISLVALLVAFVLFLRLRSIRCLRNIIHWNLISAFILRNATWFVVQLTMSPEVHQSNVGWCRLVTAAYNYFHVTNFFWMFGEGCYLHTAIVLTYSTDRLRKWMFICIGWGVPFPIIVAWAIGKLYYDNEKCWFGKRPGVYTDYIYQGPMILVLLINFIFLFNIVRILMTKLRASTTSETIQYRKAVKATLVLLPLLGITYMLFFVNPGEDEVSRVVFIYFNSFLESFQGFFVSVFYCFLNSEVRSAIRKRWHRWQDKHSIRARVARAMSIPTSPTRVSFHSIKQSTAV
Description: The pharmacological activity and selectivity of the peptides of present invention can be determined using published test procedures. See, e.g, U.S. patent application Ser. No. 09/799,978. Because CRF2R and CRF1R are homologous proteins, it is expected that a certain proportion of agonists for CRF2R will also function as agonists of CRF1R. As discussed above, activation of CRF1R induces activation of the HPA axis since increased corticosteroid production leads to skeletal muscle atrophy. In most cases in which an increase in muscle mass or function is desired, it is not desirable to activate the HPA axis.
Because it is desirable to discriminate binding between CRF2R, as compared with CRF1R, the assays described above may be conducted using a cell, or membrane from a cell, which expresses only CRF2R or the assays can be conducted with a recombinant source of CRF2R. Cells expressing both forms of CRFR may be modified using homologous recombination to inactivate or otherwise disable the CRF1R gene. Alternatively, if the source of CRFR contains more than one CRFR type, the background signal produced by the receptor which is not of interest must be subtracted from the signal obtained in the assay. […] Known antagonists of CRFRs include, but, are not limited to, antalarmin (CRF1R selective), antisauvagine-30 (CRF2R selective) and astressin (nonselective for CRF1R/CRF2R).
Cell-based assays include the steps of contacting cells which express CRF1R or CRF2R with a peptide of the present invention or control and measuring activation of the CRFR by measuring the expression or activity of components of the CRFR signal transduction pathways.
As described in the background section above, CRFRs appear to couple through several different pathways including Gαs, Gαq or Gαi, depending upon the cell type. It is thought that agonist activation of CRFR allows the receptor to signal via any of these pathways, provided that the necessary pathway components are present in the particular cell type. Thus, to assay a particular peptide of the present invention for CRFR activation, an assay can use any of the signal transduction pathways as the readout even if the relevant cell type for treatment, in vivo, couples CRFR to skeletal muscle atrophy via a different pathway. […] Assays for measuring activation of these signaling pathways are known in the art.
For example, after contact with a peptide of the present invention, lysates of the cells can be prepared and assayed for induction of cAMP. cAMP is induced in response to Gαs activation. Because Gαs is activated by receptors other than CRFR and because a test peptide may be exerting its effect through CRFRs or by another mechanism, two control comparisons are relevant for determining whether the peptide increases levels of cAMP via activation of a CRFR. One control compares the cAMP level of cells contacted with the peptide and the cAMP level of cells contacted with a control compound (i.e., the vehicle in which the peptide is dissolved).
In one example, cAMP induction is measured with the use of DNA constructs containing the cAMP responsive element linked to any of a variety of reporter genes can be introduced into cells expressing CRFRs. Such reporter genes include, but are not limited to, chloramphenicol acetyltransferase (CAT), luciferase, glucuronide synthetase, growth hormone, fluorescent proteins (e.g., Green Fluorescent Protein), or alkaline phosphatase. Following exposure of the cells to the peptide, the level of reporter gene expression can be quantitated to determine the peptide's ability to increase cAMP levels and thus determine the peptide's ability to activate the CRFR.
In addition to using cells expressing full length CRFRs, cells can be engineered which express CRFRs containing the ligand binding domain of the receptor coupled to, or physically modified to contain, reporter elements or to interact with signaling proteins.

**Q.** `CC[C@H](C)[C@H](NC(=O)[C@H](CCCNC(=N)N)NC(=O)[C@H](C)NC(=O)[C@H](CC(N)=O)NC(=O)[C@H](CCC(N)=O)NC(=O)[C@H](CCC(=O)O)NC(=O)[C@H](C)NC(=O)[C@H](CCCNC(=N)N)NC(=O)[C@H](CCC(=O)O)NC(=O)[C@H](CCCNC(=N)N)NC(=O)[C@H](CCC(N)=O)NC(=O)[C@H](CO)NC(=O)[C@H](CCC(N)=O)NC(=O)[C@@H](NC(=O)[C@H](CCCNC(=N)N)NC(=O)[C@H](C)NC(=O)[C@H](CC(C)C)NC(=O)[C@H](CCC(=O)O)NC(=O)[C@H](CC(C)C)NC(=O)[C@H](CC(C)C)NC(=O)[C@@H](NC(=O)[C@H](CCCNC(=N)N)NC(=O)[C@H](CC(C)C)NC(=O)[C@H](CC(C)C)NC(=O)[C@H](CC(C)C)NC(=O)[C@H](CC(C)C)NC(=O)[C@@H]1CCCN1C(=O)[C@H](CC(C)C)NC(=O)[C@H](CC(=O)O)NC(=O)[C@@H](NC(=O)[C@H](CO)NC(=O)[C@H](CC(C)C)NC(=O)[C@H](CO)NC(=O)[C@@H]1CCCN1C(=O)[C@H](CC(N)=O)NC(=O)[C@@H](N)CC(=O)O)[C@@H](C)CC)[C@@H](C)O)[C@@H](C)O)C(=O)N[C@@H](Cc1ccccc1)C(=O)N[C@@H](C)C(=O)N[C@@H](CCCNC(=N)N)C(=O)N[C@H](C(N)=O)C(C)C` [compound 340] (H-DNPSLSIDLPLLLLRTLLELARTQSQRERAEQNARIFARV-NH2; N-terminus assumed) was tested. Which EC50 (CRF2R) did it give?
**A.** Its EC50 is 0.00799 µM.

**Q.** And the EC50 (CRF1R)?
**A.** The EC50 was 0.739 µM.

**Q.** How did the EC50 (CRF2R) turn out when `CC[C@H](C)[C@H](NC(=O)[C@H](C)NC(=O)[C@H](CC(N)=O)NC(=O)[C@H](CCC(N)=O)NC(=O)[C@H](CCC(=O)O)NC(=O)[C@H](C)NC(=O)[C@H](CCCNC(=N)N)NC(=O)[C@H](CCC(=O)O)NC(=O)[C@H](CCCNC(=N)N)NC(=O)[C@H](CCC(N)=O)NC(=O)[C@H](CO)NC(=O)[C@H](CCC(N)=O)NC(=O)[C@@H](NC(=O)[C@H](CCCNC(=N)N)NC(=O)[C@H](C)NC(=O)[C@H](CC(C)C)NC(=O)[C@H](CCC(=O)O)NC(=O)[C@H](CC(C)C)NC(=O)[C@H](CC(C)C)NC(=O)[C@@H](NC(=O)[C@H](CCCNC(=N)N)NC(=O)[C@H](CC(C)C)NC(=O)[C@H](CC(C)C)NC(=O)[C@H](CCC(N)=O)NC(=O)[C@H](CC(C)C)NC(=O)[C@@H]1CCCN1C(=O)[C@H](CC(C)C)NC(=O)[C@H](CC(=O)O)NC(=O)[C@@H](NC(=O)[C@H](CO)NC(=O)[C@H](CC(C)C)NC(=O)[C@H](CO)NC(=O)[C@@H]1CCCN1C(=O)[C@H](CC(N)=O)NC(=O)[C@@H](N)CC(=O)O)[C@@H](C)CC)[C@@H](C)O)[C@@H](C)O)C(=O)N[C@H](C(=O)N[C@@H](Cc1ccccc1)C(=O)N[C@@H](C)C(=O)N[C@@H](CO)C(=O)N[C@H](C(N)=O)C(C)C)[C@@H](C)CC` [compound 176] (H-DNPSLSIDLPLQLLRTLLELARTQSQRERAEQNAIIFASV-NH2; N-terminus assumed) was run?
**A.** Its EC50 is 0.0126 µM.

**Q.** What about the EC50 (CRF1R) of the same compound?
**A.** The EC50 was at least 1 µM.

**Q.** What does the source list for `CC[C@H](C)[C@H](NC(=O)[C@H](CCCNC(=N)N)NC(=O)[C@H](C)NC(=O)[C@H](CC(N)=O)NC(=O)[C@H](CCC(N)=O)NC(=O)[C@H](CCC(=O)O)NC(=O)[C@H](C)NC(=O)[C@H](CCCNC(=N)N)NC(=O)[C@H](CCC(=O)O)NC(=O)[C@H](CCCNC(=N)N)NC(=O)[C@H](CCC(N)=O)NC(=O)[C@H](CO)NC(=O)[C@H](CCC(N)=O)NC(=O)[C@@H](NC(=O)[C@H](CCCCN)NC(=O)[C@H](CCC(=O)O)NC(=O)[C@H](CC(C)C)NC(=O)[C@H](CCC(=O)O)NC(=O)[C@H](CC(C)C)NC(=O)[C@H](CC(C)C)NC(=O)[C@@H](NC(=O)[C@H](CCCNC(=N)N)NC(=O)[C@H](CC(C)C)NC(=O)[C@H](CC(C)C)NC(=O)[C@H](CC(C)C)NC(=O)[C@H](CC(C)C)NC(=O)[C@@H]1CCCN1C(=O)[C@H](CC(C)C)NC(=O)[C@H](CC(=O)O)NC(=O)[C@@H](NC(=O)[C@H](CO)NC(=O)[C@H](CC(C)C)NC(=O)[C@H](CO)NC(=O)[C@@H]1CCCN1C(=O)[C@H](CC(N)=O)NC(=O)[C@@H](N)CC(=O)O)[C@@H](C)CC)[C@@H](C)O)[C@@H](C)O)C(=O)N[C@@H](Cc1ccccc1)C(=O)N[C@@H](C)C(=O)N[C@@H](CCCNC(=N)N)C(=O)N[C@H](C(N)=O)C(C)C` [compound 341] (H-DNPSLSIDLPLLLLRTLLELEKTQSQRERAEQNARIFARV-NH2; N-terminus assumed)?
**A.** EC50 (CRF2R): 0.00883 µM; EC50 (CRF1R): 0.85 µM

**Q.** How did the EC50 (CRF2R) turn out when `CC[C@H](C)[C@H](N)C(=O)N[C@H](C(=O)N[C@@H](CC(C)C)C(=O)N[C@@H](CO)C(=O)N[C@@H](CC(C)C)C(=O)N[C@@H](CC(=O)O)C(=O)N[C@H](C(=O)N1CCC[C@H]1C(=O)N[C@H](C(=O)NCC(=O)N[C@@H](CC(C)C)C(=O)N[C@@H](CC(C)C)C(=O)N[C@@H](CCC(N)=O)C(=O)N[C@H](C(=O)N[C@@H](CC(C)C)C(=O)N[C@@H](CC(C)C)C(=O)N[C@@H](CCC(=O)O)C(=O)N[C@@H](CCSC)C(=O)N[C@H](C(=O)N[C@@H](CCCCN)C(=O)N[C@@H](C)C(=O)N[C@@H](CC(=O)O)C(=O)N[C@@H](CCC(N)=O)C(=O)N[C@@H](CC(C)C)C(=O)N[C@@H](C)C(=O)N[C@@H](CCC(N)=O)C(=O)N[C@@H](CCC(N)=O)C(=O)N[C@@H](C)C(=O)N[C@@H](Cc1c[nH]cn1)C(=O)N[C@@H](CO)C(=O)N[C@@H](CC(N)=O)C(=O)N[C@@H](CCCNC(=N)N)C(=O)N[C@@H](CCCCN)C(=O)N[C@@H](CC(C)C)C(=O)N[C@@H](CC(C)C)C(=O)N[C@@H](CC(=O)O)C(=O)N[C@H](C(=O)N[C@@H](C)C(N)=O)[C@@H](C)CC)[C@@H](C)O)[C@@H](C)CC)[C@@H](C)CC)C(C)C)C(C)C` [compound 155] (H-IVLSLDVPIGLLQILLEMTKADQLAQQAHSNRKLLDIA-NH2; N-terminus assumed) was run?
**A.** The EC50 was 0.0206 µM.

**Q.** And the EC50 (CRF1R)?
**A.** Its EC50 is 0.0406 µM.
